Source: article PMC4697445 (Journal of medicinal chemistry, 2015)
Where two headings read alike, the source gives them in different places.

Assays:
Biodistribution in rats = format: in vivo, male Sprague-Dawley rats; conditions: rat; for blood uptake / bone uptake / brain uptake / fat uptake / kidney uptake / liver uptake / muscle uptake: iv, mean ± SD, n = 4; for in vivo metabolic defluorination (bone activity): 5 to 60 min p.i.
PDE10A [1] = molecular target: PDE10A (Rattus norvegicus, UniProt Q9QYJ6); conditions: by 30 min p.i.
PDE10A [2] = tested on: PDE10A
[3] = for % peak 1 (radiometabolite, retention time ~3.5 min) / % peak 2 (radiometabolite, retention time ~7.5 min): NHP plasma

Chain of PDE10A (Rattus norvegicus, UniProt Q9QYJ6) (Q9QYJ6 whole entry): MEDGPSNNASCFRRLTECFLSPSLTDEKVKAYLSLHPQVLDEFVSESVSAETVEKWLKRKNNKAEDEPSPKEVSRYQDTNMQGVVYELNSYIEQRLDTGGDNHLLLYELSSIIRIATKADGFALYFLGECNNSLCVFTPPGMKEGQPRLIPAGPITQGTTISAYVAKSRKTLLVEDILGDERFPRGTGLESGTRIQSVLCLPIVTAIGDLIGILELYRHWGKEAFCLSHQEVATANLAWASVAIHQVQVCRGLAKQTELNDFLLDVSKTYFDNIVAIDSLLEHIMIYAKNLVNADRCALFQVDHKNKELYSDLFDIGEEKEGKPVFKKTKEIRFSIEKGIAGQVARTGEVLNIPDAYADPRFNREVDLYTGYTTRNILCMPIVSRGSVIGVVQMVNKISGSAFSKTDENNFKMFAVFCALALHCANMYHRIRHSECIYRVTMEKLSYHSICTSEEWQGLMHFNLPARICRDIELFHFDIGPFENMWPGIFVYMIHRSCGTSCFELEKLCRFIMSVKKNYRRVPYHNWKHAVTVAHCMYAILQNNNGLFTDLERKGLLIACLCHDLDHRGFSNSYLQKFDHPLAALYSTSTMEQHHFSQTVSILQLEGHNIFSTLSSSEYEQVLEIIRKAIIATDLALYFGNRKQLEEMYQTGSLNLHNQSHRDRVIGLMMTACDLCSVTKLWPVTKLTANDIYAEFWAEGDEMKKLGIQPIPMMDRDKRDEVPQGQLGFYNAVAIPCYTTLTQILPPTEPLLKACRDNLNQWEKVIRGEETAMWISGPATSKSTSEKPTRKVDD

SMILES | blood uptake (Biodistribution in rats; 5 min p.i.) [%ID/g] | bone uptake (Biodistribution in rats; 5 min p.i.) [%ID/g] | brain uptake (Biodistribution in rats; 5 min p.i.) [%ID/g] | fat uptake (Biodistribution in rats; 5 min p.i.) [%ID/g] | kidney uptake (Biodistribution in rats; 5 min p.i.) [%ID/g] | liver uptake (Biodistribution in rats; 5 min p.i.) [%ID/g] | muscle uptake (Biodistribution in rats; 5 min p.i.) [%ID/g] | bone uptake (Biodistribution in rats; 30 min p.i.) [%ID/g] | brain uptake (Biodistribution in rats; 30 min p.i.) [%ID/g] | fat uptake (Biodistribution in rats; 30 min p.i.) [%ID/g] | kidney uptake (Biodistribution in rats; 30 min p.i.) [%ID/g] | liver uptake (Biodistribution in rats; 30 min p.i.) [%ID/g] | muscle uptake (Biodistribution in rats; 30 min p.i.) [%ID/g] | bone uptake (Biodistribution in rats; 60 min p.i.) [%ID/g] | brain uptake (Biodistribution in rats; 60 min p.i.) [%ID/g] | fat uptake (Biodistribution in rats; 60 min p.i.) [%ID/g] | kidney uptake (Biodistribution in rats; 60 min p.i.) [%ID/g] | liver uptake (Biodistribution in rats; 60 min p.i.) [%ID/g] | muscle uptake (Biodistribution in rats; 60 min p.i.) [%ID/g] | in vivo metabolic defluorination (bone activity) (Biodistribution in rats) | further results
Cn1cc(-c2ccncc2)c(-c2ccc(OCc3cc([18F])c4ccccc4n3)cc2)n1 [[^18F]18a, 4-(Fluoro-^18F)-2-((4-(1-methyl-4-(pyridin-4-yl)-1H-pyrazol-3-yl)phenoxy)methyl)quinoline] | 0.353 ± 0.063 | 0.522 ± 0.116 | 0.410 ± 0.063 | 0.404 ± 0.102 | 1.887 ± 0.296 | 6.87 ± 1.27 | 0.339 ± 0.053 | 4.035 ± 0.153 | 0.191 ± 0.036 | 0.576 ± 0.154 | 1.034 ± 0.131 | 3.00 ± 0.91 | 0.236 ± 0.019 | 6.300 ± 0.314 | 0.125 ± 0.009 | 0.477 ± 0.099 | 0.533 ± 0.119 | 1.60 ± 0.87 | 0.092 ± 0.010 |  | blood uptake (Biodistribution in rats; 30 min p.i.): 0.376 ± 0.033 %ID/g; blood uptake (Biodistribution in rats; 60 min p.i.): 0.150 ± 0.021 %ID/g; ratio of activity in the striatum versus nontarget brain regions (PDE10A [1]): > 2 fold
Cn1cc(-c2ccncc2)c(-c2ccc(OCc3cc(OCC[18F])c4ccccc4n3)cc2)n1 [[^18F]18d, 4-((2-Fluoro-^18F)ethoxy)-2-((4-(1-methyl-4-(pyridin-4-yl)-1H-pyrazol-3-yl)phenoxy)methyl)quinoline] | 0.362 ± 0.048 | 0.189 ± 0.004 | 0.118 ± 0.012 | 0.213 ± 0.007 | 2.200 ± 0.158 | 6.88 ± 1.15 | 0.247 ± 0.031 | 0.091 ± 0.012 | 0.078 ± 0.009 | 0.302 ± 0.033 | 1.055 ± 0.218 | 6.98 ± 0.99 | 0.134 ± 0.019 | 0.142 ± 0.001 | 0.101 ± 0.002 | 0.259 ± 0.025 | 0.765 ± 0.153 | 3.29 ± 0.56 | 0.132 ± 0.011 | appeared more stable to in vivo defluorination | blood uptake (Biodistribution in rats; 30 min p.i.): 0.226 ± 0.073 %ID/g; blood uptake (Biodistribution in rats; 60 min p.i.): 0.215 ± 0.008 %ID/g; ratio of activity in the striatum versus nontarget brain regions (PDE10A [1]): > 2 fold; ratios of uptake in the striatum vs nontarget brain regions (PDE10A [2]; cynomolgus macaque microPET, by 40 min p.i.): > 3 fold; visualization of striatum in microPET (PDE10A [2]; cynomolgus macaque, summed images 0 to 180 min): clear visualization of the PDE10A-enriched striatum; % peak 1 (radiometabolite, retention time ~3.5 min) ([3]; 2 min p.i.): 1%; % peak 2 (radiometabolite, retention time ~7.5 min) ([3]; 2 min p.i.): 0%; % peak 1 (radiometabolite, retention time ~3.5 min) ([3]; 15 min p.i.): 4%; % peak 2 (radiometabolite, retention time ~7.5 min) ([3]; 15 min p.i.): 0%; % peak 1 (radiometabolite, retention time ~3.5 min) ([3]; 30 min p.i.): 7%; % peak 2 (radiometabolite, retention time ~7.5 min) ([3]; 30 min p.i.): 1%; % peak 1 (radiometabolite, retention time ~3.5 min) ([3]; 60 min p.i.): 19%; % peak 2 (radiometabolite, retention time ~7.5 min) ([3]; 60 min p.i.): 5%; % peak 1 (radiometabolite, retention time ~3.5 min) ([3]; 90 min p.i.): 32%; % peak 2 (radiometabolite, retention time ~7.5 min) ([3]; 90 min p.i.): 9%; radioactivity of arterial blood found in the plasma ([3]; plasma separated from packed red cells): 65–75%
Cn1cc(-c2ccncc2)c(-c2ccc(OCc3cc(F)c4ccccc4n3)cc2)n1 [Compound 18a, 4-Fluoro-2-((4-(1-methyl-4-(pyridin-4-yl)-1H-pyrazol-3-yl)-phenoxy)methyl)quinoline] |  |  |  |  |  |  |  |  |  |  |  |  |  |  |  |  |  |  |  | undergo in vivo metabolic defluorination in rodents | 
Cn1cc(-c2ccncc2)c(-c2ccc(OCc3cc(CCCF)c4ccccc4n3)cc2)n1 [Compound 18c, 4-(3-Fluoropropyl)-2-((4-(1-methyl-4-(pyridin-4-yl)-1H-pyrazol-3-yl)phenoxy)methyl) quinoline] |  |  |  |  |  |  |  |  |  |  |  |  |  |  |  |  |  |  |  | undergo in vivo metabolic defluorination in rodents | 
Cn1cc(-c2ccncc2)c(-c2ccc(OCc3cc(C[18F])c4ccccc4n3)cc2)n1 [[^18F]18b, 4-((Fluoro-^18F)methyl)-2-((4-(1-methyl-4-(pyridin-4-yl)-1H-pyrazol-3-yl)phenoxy)methyl) quinoline] | 0.471 ± 0.040 | 0.421 ± 0.063 | 0.128 ± 0.012 | 0.343 ± 0.153 | 1.799 ± 0.207 | 10.16 ± 1.86 | 0.227 ± 0.042 | 4.055 ± 1.305 | 0.094 ± 0.023 | 0.352 ± 0.081 | 1.351 ± 0.216 | 4.01 ± 1.34 | 0.174 ± 0.042 | 5.620 ± 1.132 | 0.069 ± 0.008 | 0.222 ± 0.029 | 0.573 ± 0.134 | 3.10 ± 0.61 | 0.107 ± 0.032 |  | blood uptake (Biodistribution in rats; 30 min p.i.): 0.416 ± 0.062 %ID/g; blood uptake (Biodistribution in rats; 60 min p.i.): 0.201 ± 0.026 %ID/g; ratio of activity in the striatum versus nontarget brain regions (PDE10A [1]): > 2 fold
Cn1cc(-c2ccncc2)c(-c2ccc(OCc3cc(CCC[18F])c4ccccc4n3)cc2)n1 [[^18F]18c, 4-(3-(Fluoro-^18F)propyl)-2-((4-(1-methyl-4-(pyridin-4-yl)-1H-pyrazol-3-yl)phenoxy)methyl) quinoline] | 0.459 ± 0.049 | 0.222 ± 0.014 | 0.114 ± 0.015 | 0.220 ± 0.100 | 2.471 ± 0.487 | 9.99 ± 1.27 | 0.223 ± 0.067 | 1.418 ± 0.182 | 0.046 ± 0.006 | 0.491 ± 0.035 | 1.364 ± 0.077 | 5.67 ± 0.73 | 0.178 ± 0.016 | 2.037 ± 0.303 | 0.026 ± 0.005 | 0.368 ± 0.077 | 1.216 ± 0.180 | 6.79 ± 2.49 | 0.103 ± 0.030 |  | ratio of activity in the striatum versus nontarget brain regions (PDE10A [1]): > 2 fold
Cn1cc(-c2ccncc2)c(-c2ccc(OCc3cc(COCC[18F])c4ccccc4n3)cc2)n1 [[^18F]18e, 4-((2-(Fluoro-^18F)ethoxy)methyl)-2-((4-(1-methyl-4-(pyridin-4-yl)-1H-pyrazol-3-yl)phenoxy)methyl)quinoline] | 0.440 ± 0.038 | 0.133 ± 0.028 | 0.213 ± 0.039 | 0.139 ± 0.031 | 0.981 ± 0.163 | 3.99 ± 0.82 | 0.155 ± 0.040 | 0.170 ± 0.030 | 0.353 ± 0.021 | 0.139 ± 0.037 | 0.632 ± 0.123 | 0.987 ± 0.038 | 0.265 ± 0.117 | 0.337 ± 0.072 | 0.343 ± 0.033 | 0.066 ± 0.018 | 0.485 ± 0.045 | 0.554 ± 0.064 | 0.228 ± 0.058 | appeared more stable to in vivo defluorination | blood uptake (Biodistribution in rats; 30 min p.i.): 0.424 ± 0.074 %ID/g; blood uptake (Biodistribution in rats; 60 min p.i.): 0.401 ± 0.029 %ID/g
Cn1cc(-c2ccncc2)c(-c2ccc(OCc3cc(CF)c4ccccc4n3)cc2)n1 [Compound 18b, 4-(Fluoromethyl)-2-((4-(1-methyl-4-(pyridin-4-yl)-1H-pyrazol-3-yl)phenoxy)methyl) quinoline] |  |  |  |  |  |  |  |  |  |  |  |  |  |  |  |  |  |  |  | undergo in vivo metabolic defluorination in rodents | 
Cn1cc(-c2ccncc2)c(-c2ccc(OCc3cc(OCCOCCOCC[18F])c4ccccc4n3)cc2)n1 [[^18F]18g] | 0.699 ± 0.090 | 0.487 ± 0.044 | 0.353 ± 0.052 | 0.225 ± 0.086 | 5.969 ± 0.744 | 4.74 ± 1.10 | 0.419 ± 0.090 | 0.441 ± 0.049 | 0.509 ± 0.038 | 0.254 ± 0.051 | 1.793 ± 0.291 | 1.53 ± 0.49 | 0.488 ± 0.086 | 0.490 ± 0.035 | 0.421 ± 0.028 | 0.123 ± 0.021 | 1.037 ± 0.170 | 0.527 ± 0.068 | 0.379 ± 0.027 | appeared more stable to in vivo defluorination | blood uptake (Biodistribution in rats; 30 min p.i.): 0.771 ± 0.061 %ID/g; blood uptake (Biodistribution in rats; 60 min p.i.): 0.646 ± 0.045 %ID/g
